# According to ChEMBL document CHEMBL3286313 (J Med Chem, 2014):
# pEC50, pIC50, pKi: −log10 of the molar value. Where “and” joins values, the source holds several entries; their conditions need not be identical. Equal entries are not always repeated. Calls of active or inactive are those of the source. The calls are words filed in the database; no cut-off is given here.
# Target: T1, D(2) dopamine receptor (Homo sapiens, UniProt P14416)
# Assay: not given
# T1 sequence (P14416 whole entry): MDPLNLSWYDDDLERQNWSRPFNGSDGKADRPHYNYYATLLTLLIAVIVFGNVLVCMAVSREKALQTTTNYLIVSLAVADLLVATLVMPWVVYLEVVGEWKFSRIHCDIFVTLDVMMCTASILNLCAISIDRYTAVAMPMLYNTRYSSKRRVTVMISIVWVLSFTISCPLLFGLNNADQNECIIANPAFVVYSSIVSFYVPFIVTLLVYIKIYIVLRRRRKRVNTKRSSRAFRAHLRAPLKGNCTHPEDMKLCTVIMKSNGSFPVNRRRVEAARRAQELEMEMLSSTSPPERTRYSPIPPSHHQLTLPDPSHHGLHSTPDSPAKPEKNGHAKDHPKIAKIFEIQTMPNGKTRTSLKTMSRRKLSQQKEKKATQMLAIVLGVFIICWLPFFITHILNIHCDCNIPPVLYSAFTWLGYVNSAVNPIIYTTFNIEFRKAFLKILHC
row,pEC50,SMILES
1,6.19,O=Cc1cnn2ccc(OCCCCN3CCN(c4cccc(Cl)c4Cl)CC3)cc12
2,6.36,CCOC(=O)c1cc2cc(OCCCCN3CCN(c4cccc(Cl)c4Cl)CC3)ccn2n1

# Target: 5-hydroxytryptamine receptor 2A (Homo sapiens, UniProt P28223)
# Sequence (P28223 whole entry): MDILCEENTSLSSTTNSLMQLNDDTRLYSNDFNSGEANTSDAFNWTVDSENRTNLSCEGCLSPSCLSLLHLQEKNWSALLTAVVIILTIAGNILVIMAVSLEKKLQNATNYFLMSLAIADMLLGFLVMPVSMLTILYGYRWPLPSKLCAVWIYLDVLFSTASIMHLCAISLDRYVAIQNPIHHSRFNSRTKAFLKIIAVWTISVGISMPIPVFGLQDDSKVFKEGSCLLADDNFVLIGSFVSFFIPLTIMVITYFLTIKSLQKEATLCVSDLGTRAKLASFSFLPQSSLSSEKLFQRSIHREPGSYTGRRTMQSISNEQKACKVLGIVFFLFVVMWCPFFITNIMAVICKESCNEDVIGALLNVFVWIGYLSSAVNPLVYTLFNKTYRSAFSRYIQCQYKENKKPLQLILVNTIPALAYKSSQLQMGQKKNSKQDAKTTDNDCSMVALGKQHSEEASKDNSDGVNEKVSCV
# Assay: biochemical
# Format: cell-based, HEK293
row,pKi,SMILES
1,8.10,O/N=C/c1cc2cc(OCCCCN3CCN(c4cccc(Cl)c4Cl)CC3)ccn2n1
2,6.62,O=Cc1cnn2ccc(OCCCCN3CCN(c4cccc(Cl)c4Cl)CC3)cc12
3,7.66,CCOC(=O)c1cc2cc(OCCCCN3CCN(c4cccc(Cl)c4Cl)CC3)ccn2n1

row,SMILES,pKi
1,O=Cc1cc2cc(OCCCCN3CCN(c4cccc(Cl)c4Cl)CC3)ccn2n1,7.25

# Target: D(1A) dopamine receptor (Homo sapiens, UniProt P21728)
# Sequence (P21728 whole entry): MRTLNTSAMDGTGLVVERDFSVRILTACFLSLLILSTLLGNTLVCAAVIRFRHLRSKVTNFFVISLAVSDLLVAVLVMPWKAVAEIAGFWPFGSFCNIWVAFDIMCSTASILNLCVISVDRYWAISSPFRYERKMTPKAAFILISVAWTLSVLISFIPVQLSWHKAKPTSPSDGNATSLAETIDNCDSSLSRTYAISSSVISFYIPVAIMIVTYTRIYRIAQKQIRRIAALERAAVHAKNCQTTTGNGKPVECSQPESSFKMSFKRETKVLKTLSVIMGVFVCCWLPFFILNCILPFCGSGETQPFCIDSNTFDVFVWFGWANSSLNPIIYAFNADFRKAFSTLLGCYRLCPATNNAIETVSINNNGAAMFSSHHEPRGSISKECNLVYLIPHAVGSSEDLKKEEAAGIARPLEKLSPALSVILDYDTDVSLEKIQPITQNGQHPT
# Assay: biochemical
# Format: cell-based, HEK293
row,pKi,SMILES
1,6.59,O/N=C/c1cc2cc(OCCCCN3CCN(c4cccc(Cl)c4Cl)CC3)ccn2n1
2,6.01,O=Cc1cnn2ccc(OCCCCN3CCN(c4cccc(Cl)c4Cl)CC3)cc12
3,6.82,CCOC(=O)c1cc2cc(OCCCCN3CCN(c4cccc(Cl)c4Cl)CC3)ccn2n1

row,SMILES,pKi
1,O=Cc1cc2cc(OCCCCN3CCN(c4cccc(Cl)c4Cl)CC3)ccn2n1,6.74

# Target: T1, D(2) dopamine receptor
# Assay: biochemical
# Format: cell-based, CHO
row,pKi,SMILES
1,7.54,O=Cc1cnn2cccc(OCCCCN3CCN(c4cccc(Cl)c4Cl)CC3)c12
2,8.48,O/N=C/c1cc2cc(OCCCCN3CCN(c4cccc(Cl)c4Cl)CC3)ccn2n1
3,7.19,Clc1cccc(N2CCN(CCCCOc3cccc4ccnn34)CC2)c1Cl
4,8.34,O=Cc1cnn2ccc(OCCCCN3CCN(c4cccc(Cl)c4Cl)CC3)cc12
5,7.29,O=Cc1cnn2c(OCCCCN3CCN(c4cccc(Cl)c4Cl)CC3)cccc12
6,8.13,CCOC(=O)c1cc2cc(OCCCCN3CCN(c4cccc(Cl)c4Cl)CC3)ccn2n1
7,7.60,Clc1cccc(N2CCN(CCCCOc3cccn4nccc34)CC2)c1Cl
8,8.00,O=Cc1c(OCCCCN2CCN(c3cccc(Cl)c3Cl)CC2)nn2ccccc12

row,SMILES,pKi
1,O=Cc1cc2cc(OCCCCN3CCN(c4cccc(Cl)c4Cl)CC3)ccn2n1,7.85

# Tested on: Mus musculus
# Assay: CNS activity in C57Bl/6J mouse assessed as auditory startle response at 3 mg/kg, ip measured after 15 mins
# Format: functional, organism-based
# Design: dose 3 mg/kg
row,SMILES,Activity
1,O=Cc1cnn2ccc(OCCCCN3CCN(c4cccc(Cl)c4Cl)CC3)cc12,Active

# Target: T1, D(2) dopamine receptor
# Assay: biochemical
# Format: cell-based, CHO
# Remark: another data set of the same source
row,pKi,SMILES
1,7.62,O=Cc1cnn2cccc(OCCCCN3CCN(c4cccc(Cl)c4Cl)CC3)c12
2,8.64,O/N=C/c1cc2cc(OCCCCN3CCN(c4cccc(Cl)c4Cl)CC3)ccn2n1
3,7.80,Clc1cccc(N2CCN(CCCCOc3cccc4ccnn34)CC2)c1Cl
4,8.49,O=Cc1cnn2ccc(OCCCCN3CCN(c4cccc(Cl)c4Cl)CC3)cc12
5,7.82,O=Cc1cnn2c(OCCCCN3CCN(c4cccc(Cl)c4Cl)CC3)cccc12
6,8.17,CCOC(=O)c1cc2cc(OCCCCN3CCN(c4cccc(Cl)c4Cl)CC3)ccn2n1
7,7.52,Clc1cccc(N2CCN(CCCCOc3cccn4nccc34)CC2)c1Cl
8,7.85,O=Cc1c(OCCCCN2CCN(c3cccc(Cl)c3Cl)CC2)nn2ccccc12

row,SMILES,pKi
1,O=Cc1cc2cc(OCCCCN3CCN(c4cccc(Cl)c4Cl)CC3)ccn2n1,7.85

# Target: T2, D(4) dopamine receptor (Homo sapiens, UniProt P21917)
# T2 sequence (P21917 whole entry): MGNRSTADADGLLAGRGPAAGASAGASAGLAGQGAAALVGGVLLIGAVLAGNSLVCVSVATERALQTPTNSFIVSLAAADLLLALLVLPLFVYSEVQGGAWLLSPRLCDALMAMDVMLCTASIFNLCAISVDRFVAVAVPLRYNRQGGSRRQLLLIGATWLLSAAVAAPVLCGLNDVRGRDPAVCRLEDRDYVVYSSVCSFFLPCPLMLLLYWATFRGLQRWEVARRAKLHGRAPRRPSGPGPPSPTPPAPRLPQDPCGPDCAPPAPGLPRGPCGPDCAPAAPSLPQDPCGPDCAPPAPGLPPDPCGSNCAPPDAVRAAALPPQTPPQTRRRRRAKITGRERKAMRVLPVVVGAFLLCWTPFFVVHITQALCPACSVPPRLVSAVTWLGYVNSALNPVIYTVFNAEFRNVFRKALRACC
# Assay: biochemical
# Format: cell-based, CHO
row,pKi,SMILES
1,7.39,O=Cc1cnn2cccc(OCCCCN3CCN(c4cccc(Cl)c4Cl)CC3)c12
2,7.62,O/N=C/c1cc2cc(OCCCCN3CCN(c4cccc(Cl)c4Cl)CC3)ccn2n1
3,7.80,Clc1cccc(N2CCN(CCCCOc3cccc4ccnn34)CC2)c1Cl
4,7.24,O=Cc1cnn2ccc(OCCCCN3CCN(c4cccc(Cl)c4Cl)CC3)cc12
5,7.11,O=Cc1cnn2c(OCCCCN3CCN(c4cccc(Cl)c4Cl)CC3)cccc12
6,7.33,CCOC(=O)c1cc2cc(OCCCCN3CCN(c4cccc(Cl)c4Cl)CC3)ccn2n1
7,7.80,Clc1cccc(N2CCN(CCCCOc3cccn4nccc34)CC2)c1Cl
8,7.54,O=Cc1c(OCCCCN2CCN(c3cccc(Cl)c3Cl)CC2)nn2ccccc12

row,SMILES,pKi
1,O=Cc1cc2cc(OCCCCN3CCN(c4cccc(Cl)c4Cl)CC3)ccn2n1,7.05

# Target: T3, D(3) dopamine receptor (Homo sapiens, UniProt P35462)
# T3 sequence (P35462 whole entry): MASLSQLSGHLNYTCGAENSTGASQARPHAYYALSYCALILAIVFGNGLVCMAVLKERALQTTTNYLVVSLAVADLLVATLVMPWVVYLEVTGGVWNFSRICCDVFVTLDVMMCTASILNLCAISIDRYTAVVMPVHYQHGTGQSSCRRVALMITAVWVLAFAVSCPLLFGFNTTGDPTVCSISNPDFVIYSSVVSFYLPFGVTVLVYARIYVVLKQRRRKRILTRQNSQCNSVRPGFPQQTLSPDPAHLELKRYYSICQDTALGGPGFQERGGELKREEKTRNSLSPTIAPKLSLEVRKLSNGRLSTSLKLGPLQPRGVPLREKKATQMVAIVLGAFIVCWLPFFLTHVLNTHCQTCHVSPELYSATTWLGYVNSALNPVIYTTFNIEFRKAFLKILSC
# Assay: not given
# Format: functional, cell-based, HEK293
row,pEC50,SMILES
1,7.82,O/N=C/c1cc2cc(OCCCCN3CCN(c4cccc(Cl)c4Cl)CC3)ccn2n1
2,8.72,O=Cc1cnn2ccc(OCCCCN3CCN(c4cccc(Cl)c4Cl)CC3)cc12
3,7.24,CCOC(=O)c1cc2cc(OCCCCN3CCN(c4cccc(Cl)c4Cl)CC3)ccn2n1

row,SMILES,pEC50
1,O=Cc1cc2cc(OCCCCN3CCN(c4cccc(Cl)c4Cl)CC3)ccn2n1,8.30

# Target: T3, D(3) dopamine receptor
# Assay: biochemical
# Format: cell-based, CHO
row,pKi,SMILES
1,7.70,O=Cc1cnn2cccc(OCCCCN3CCN(c4cccc(Cl)c4Cl)CC3)c12
2,9.07,O/N=C/c1cc2cc(OCCCCN3CCN(c4cccc(Cl)c4Cl)CC3)ccn2n1
3,8.14,Clc1cccc(N2CCN(CCCCOc3cccc4ccnn34)CC2)c1Cl
4,8.16,O=Cc1cnn2ccc(OCCCCN3CCN(c4cccc(Cl)c4Cl)CC3)cc12
5,8.19,O=Cc1cnn2c(OCCCCN3CCN(c4cccc(Cl)c4Cl)CC3)cccc12
6,8.68,CCOC(=O)c1cc2cc(OCCCCN3CCN(c4cccc(Cl)c4Cl)CC3)ccn2n1
7,8.00,Clc1cccc(N2CCN(CCCCOc3cccn4nccc34)CC2)c1Cl
8,8.23,O=Cc1c(OCCCCN2CCN(c3cccc(Cl)c3Cl)CC2)nn2ccccc12

row,SMILES,pKi
1,O=Cc1cc2cc(OCCCCN3CCN(c4cccc(Cl)c4Cl)CC3)ccn2n1,8.22

# Target: T1, D(2) dopamine receptor
# Assay: not given
# Remark: another data set of the same source
row,SMILES,pIC50
1,O=Cc1cc2cc(OCCCCN3CCN(c4cccc(Cl)c4Cl)CC3)ccn2n1,7.54 and 7.66
2,O=Cc1cnn2ccc(OCCCCN3CCN(c4cccc(Cl)c4Cl)CC3)cc12,6.44
